In patent US10414763B2 (CANCER RESEARCH TECHNOLOGY LIMITED, priority 2014, dated 2019):

Biological target: T1, full-length human PKCι (Homo sapiens, UniProt P41743)
T1 construct: Recombinant, full-length human PKCι expressed in Sf21 insect cells is also commercially available; purchased EMD Millipore; host or cells: Sf21 insect cells (baculovirus)
T1 sequence (P41743 1-596): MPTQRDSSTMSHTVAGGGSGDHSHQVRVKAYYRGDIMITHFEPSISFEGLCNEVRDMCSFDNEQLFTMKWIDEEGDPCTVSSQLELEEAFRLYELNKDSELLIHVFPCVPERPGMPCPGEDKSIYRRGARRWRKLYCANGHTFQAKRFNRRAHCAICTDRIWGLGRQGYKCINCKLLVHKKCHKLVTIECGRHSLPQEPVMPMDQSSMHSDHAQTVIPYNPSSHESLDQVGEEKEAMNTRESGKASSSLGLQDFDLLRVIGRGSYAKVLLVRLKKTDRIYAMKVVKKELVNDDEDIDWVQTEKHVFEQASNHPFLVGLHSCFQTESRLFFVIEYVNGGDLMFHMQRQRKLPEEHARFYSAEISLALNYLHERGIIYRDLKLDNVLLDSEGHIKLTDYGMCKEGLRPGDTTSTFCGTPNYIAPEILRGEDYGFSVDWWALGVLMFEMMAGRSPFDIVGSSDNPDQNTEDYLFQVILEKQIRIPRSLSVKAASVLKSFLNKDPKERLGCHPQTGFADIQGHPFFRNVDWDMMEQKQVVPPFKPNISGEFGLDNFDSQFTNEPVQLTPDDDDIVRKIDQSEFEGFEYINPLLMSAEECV
Assay: PKCι IC50 IMAP fluorescence polarisation assay, full-length enzyme, 150 μM ATP
Type: biochemical
Settings: read-out: IC50 in IMAP assay against full length PKCi at 150 μM ATP
In short: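 IMAP fluorescence polarisation kinase assay: 15 pM baculovirus-expressed human PKCiota with 100 nM FAM-pseudosubstrate peptide and 150 μM ATP, 1 h at 25 °C. IMAP detection reagent then 2 h at 25 °C before FP measurement. Inhibition referenced to no-compound and no-enzyme controls for IC50 fitting.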

Structure (SMILES)	IC50 [nM]
CC1(C)CNCCC1Nc1nc(-c2ccnc(Nc3c(F)cccc3F)c2)nc2cncc(C3CCC3)c12 (stereo not drawn) [Example 93, {5-Cyclobutyl-2-[2-(2,6-difluoro-phenylamino)-pyridin-4-yl]-pyrido[3,4-d]pyrimidin-4-yl}-(3,3-dimethyl-piperidin-4-yl)-amine]	< 100
Cc1cc2c(-c3nc(N4CCCC5NCCCC54)c4c(C5CC5)cncc4n3)ccnc2[nH]1 (stereo not drawn) [Example 94, 5-Cyclopropyl-2-(2-methyl-1H-pyrrolo[2,3-b]pyridin-4-yl)-4-(octahydro-[1,5]naphthyridin-1-yl)-pyrido[3,4-d]pyrimidine]	< 100
Cc1cc2c(-c3nc(N4CCCC5NCCCC54)c4c(C5CCC5)cncc4n3)ccnc2[nH]1 (stereo not drawn) [Example 95, 5-Cyclobutyl-2-(2-methyl-1H-pyrrolo[2,3-b]pyridin-4-yl)-4-(octahydro-[1,5]naphthyridin-1-yl)-pyrido[3,4-d]pyrimidine]	< 100
CC1(C)CNCCC1Nc1nc(-c2ccnc(NCc3c(F)cccc3F)c2)nc2cncc(C3CCC3)c12 (stereo not drawn) [Example 96, {5-Cyclobutyl-2-[2-(2,6-difluoro-benzylamino)-pyridin-4-yl]-pyrido[3,4-d]pyrimidin-4-yl}-(3,3-dimethyl-piperidin-4-yl)-amine]	< 100
Fc1ccc(F)c(Nc2cc(-c3nc(N4CCC5NCCC54)c4c(C5CCC5)cncc4n3)ccn2)n1 (stereo not drawn) [Example 97, {4-[5-Cyclobutyl-4-(hexahydro-pyrrolo [3,2-b]pyrrol-1-yl)-pyrido[3,4-d]pyrimidin-2-yl]-pyridin-2-yl}-(3,6-difluoro-pyridin-2-yl)-amine]	< 100
Fc1cc(F)c(Nc2cc(-c3nc(N4CCC5NCCC54)c4c(C5CCC5)cncc4n3)ccn2)nc1F (stereo not drawn) [Example 98, {4-[5-Cyclobutyl-4-(hexahydro-pyrrolo[3,2-b]pyrrol-1-yl)-pyrido[3,4-d]pyrimidin-2-yl]-pyridin-2-yl}-(3,5,6-trifluoro-pyridin-2-yl)-amine]	< 100
CNC(=O)c1cc2c(-c3nc(N4CCC5CNCCC54)c4c(C5CC5)cncc4n3)ccnc2[nH]1 (stereo not drawn) [Example 99, 4-[5-Cyclopropyl-4-(octahydro-pyrrolo[3,2-c]pyridin-1-yl)-pyrido[3,4-d]pyrimidin-2-yl]-1H-pyrrolo[2,3-b]pyridine-2-carboxylic acid methylamide]	< 100
Cc1cc2c(-c3nc(NC4CCNCC4(C)C)c4c(C5CC5)cncc4n3)ccnc2[nH]1 (stereo not drawn) [Example 100, [5-Cyclopropyl-2-(2-methyl-1H-pyrrolo[2,3-b]pyridin-4-yl)-pyrido[3,4-d]pyrimidin-4-yl]-(3,3-dimethyl-piperidin-4-yl)-amine]	< 100
Cc1cc2c(-c3nc(NC4CCNCC4(C)C)c4c(C5CCC5)cncc4n3)ccnc2[nH]1 (stereo not drawn) [Example 101, [5-Cyclobutyl-2-(2-methyl-1H-pyrrolo[2,3-b]pyridin-4-yl)-pyrido[3,4-d]pyrimidin-4-yl]-(3,3-dimethyl-piperidin-4-yl)-amine]	< 100
c1ccc(Nc2cc(-c3nc(N4CCC5NCCC54)c4c(C5CCC5)cncc4n3)ccn2)cc1 (stereo not drawn) [Example 102, {4-[5-Cyclobutyl-4-(hexahydro-pyrrolo[3,2-b]pyrrol-1-yl)-pyrido[3,4-d]pyrimidin-2-yl]-pyndin-2-yl}-phenyl-amine]	< 100
Clc1ccc(Cl)c(-c2cc3c(-c4nc(N5CCC6NCCC65)c5c(C6CC6)cncc5n4)ccnc3[nH]2)c1 (stereo not drawn) [Example 103, 5-Cyclopropyl-2-[2-(2,5-dichloro-phenyl)-1H-pyrrolo[2,3-b]pyridin-4-yl]-4-(hexahydro-pyrrolo[3,2-b]pyrrol-1-yl)-pyrido[3,4-d]pyrimidine]	< 100
CC1(C)CNCCC1Nc1nc(-c2ccnc(Nc3cc(F)cc(F)n3)c2)nc2cncc(C3CCC3)c12 (stereo not drawn) [Example 105, {5-Cyclobutyl-2-[2-(4,6-difluoro-pyridin-2-ylamino)-pyridin-4-yl]-pyrido[3,4-d]pyrimidin-4-yl}-(3,3-dimethyl-piperidin-4-yl)-amine]	100 to 1000
